According to ChEMBL document CHEMBL1157939, “Bromophycolides C-I from the Fijian red alga Callophycus serratus” (J Nat Prod, 2006):

Columns and labels:
DU-4475 = assay: Antineoplastic activity against human DU4475 cells after 72 hrs by MTS reduction assay; assay type: functional, cell-based; details: DU-4475, 72 h
Candida albicans = assay: Antifungal activity against amphotericin B-resistant Candida albicans after 12 to 15 hrs by alamar blue assay; assay type: functional, organism-based

SMILES: C=C1CC[C@H](Br)[C@@]2(C)CC[C@@H](Br)[C@@](C)(O)CC[C@@H](Br)C(C)(C)OC(=O)c3ccc(O)c(c3)C[C@H]12 [BROMOPHYCOLIDE H]
- IC50 (DU-4475): 3.88 µM

SMILES: C=C1CC[C@H](Br)[C@@]2(C)CC[C@@H](Br)[C@@](C)(O)CC[C@H](O)C(C)(C)OC(=O)c3ccc(O)c(c3)C[C@H]12 [BROMOPHYCOLIDE I]
- IC50 (Candida albicans): 208 µM

SMILES: C=C1CC[C@H](Br)[C@@]2(C)CC[C@@H]3O[C@@]3(C)CC[C@@H](C(C)(C)O)OC(=O)c3ccc(O)c(c3)C[C@H]12 [BROMOPHYCOLIDE F]
- IC50 (Candida albicans): 240 µM
